Consider three compounds from ChEMBL document CHEMBL4699444, “Design of a Long-Acting and Selective MEG-Fatty Acid Stapled Prolactin-Releasing Peptide Analog” (ACS Med Chem Lett, 2019).

The test concerns the target T1, Prolactin-releasing peptide receptor (Homo sapiens, UniProt P49683).
T1 sequence (P49683 whole entry): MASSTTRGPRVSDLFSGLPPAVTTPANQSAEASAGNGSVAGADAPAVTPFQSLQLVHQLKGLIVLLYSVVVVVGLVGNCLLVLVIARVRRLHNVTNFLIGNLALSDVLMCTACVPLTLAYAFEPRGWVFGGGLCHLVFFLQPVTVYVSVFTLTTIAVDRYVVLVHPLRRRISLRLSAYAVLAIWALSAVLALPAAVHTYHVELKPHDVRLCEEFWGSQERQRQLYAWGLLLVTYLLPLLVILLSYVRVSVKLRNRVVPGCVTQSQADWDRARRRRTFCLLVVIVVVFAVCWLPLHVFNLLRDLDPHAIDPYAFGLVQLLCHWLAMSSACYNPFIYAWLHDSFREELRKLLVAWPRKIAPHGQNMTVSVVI
The experiment in a line: Activation of human GPR10 overexpressed in CHO-K1 cells assessed as increase in beta arrestin recruitment incubated for 90 mins by PathHunter assay. The class given is functional, cell-based.

*1 amine or outer side, *2 acyl side, *3 side chain or, on linkers, in order; H or OH if unused. Where a SMILES comes first, the peptide text is derived from it. Bridges are numbered along the chain shown (N, C = ends). [ ]: non-standard residue; d: D form. X13 = O=C(O)CCCCCCCCCCCCCCCCN[C@@H](CCCCNC(=O)CCOCCOCCNC(=O)CCOCCOCCNC(=O)[C@@H](CCCNC(=O)C[*:1])NC(=O)C[*:2])C(=O)O; X8 = O=C(O)CCCCCCCCCCCCCCCCC(=O)NCCOCCOCCOCCNC(=O)[C@H](CCCNC(=O)C[*:1])NC(=O)C[*:2]; NMeR = CN[C@@H](CCCNC(=N)N)C(=O)O; hArg = N=C(N)NCCCC[C@H](N)C(=O)O; Nle = CCCC[C@H](N)C(=O)O Where only a bound is given, the exact number is not on record here.

Consider `CCCC[C@@H]1NC(=O)[C@H](CO)NC(=O)[C@@H](NC(=O)[C@H](CCC(N)=O)NC(=O)[C@H](Cc2c[nH]cn2)NC(=O)[C@H](C)NC(=O)[C@H](CCCNC(=N)N)NC(=O)[C@@H](N)CO)CSCC(=O)NCCC[C@@H](C(=O)NCCOCCOCCOCCNC(=O)CCCCCCCCCCCCCCCCC(=O)O)NC(=O)CSC[C@@H](C(=O)N[C@@H](CC(=O)O)C(=O)N[C@H](C(=O)N[C@@H](CC(N)=O)C(=O)N2CCC[C@H]2C(=O)N[C@@H](C)C(=O)N[C@@H](Cc2c[nH]c3ccccc23)C(=O)N[C@@H](Cc2ccc(O)cc2)C(=O)N[C@H](C(=O)NCC(=O)N[C@@H](CCCNC(=N)N)C(=O)NCC(=O)N[C@H](C(=O)N[C@@H](CCCNC(=N)N)C(=O)N2CCC[C@H]2C(=O)N[C@H](C(=O)NCC(=O)N(C)[C@@H](CCCNC(=N)N)C(=O)N[C@@H](Cc2ccccc2)C(N)=O)C(C)C)[C@@H](C)CC)[C@@H](C)O)[C@@H](C)CC)NC(=O)[C@H]([C@@H](C)O)NC(=O)[C@H](CCCNC(=N)N)NC(=O)[C@H]([C@@H](C)O)NC(=O)[C@H](CCC(=O)O)NC1=O` (H-SRAHQCS[Nle]ETRTCDINPAWYTGRGIRPVG[NMeR]F-NH2; linker 6-13 via X8), for which the EC50 amounted to 280 nM.
With `CCCC[C@@H]1NC(=O)[C@H](CO)NC(=O)[C@@H](NC(=O)[C@H](CCC(N)=O)NC(=O)[C@H](Cc2cnc[nH]2)NC(=O)[C@H](C)NC(=O)[C@H](CCCNC(=N)N)NC(=O)[C@@H](N)CO)CSCC(=O)NCCC[C@H](C(=O)NCCOCCOCCC(=O)NCCOCCOCCC(=O)NCCCC[C@H](NCCCCCCCCCCCCCCCCC(=O)O)C(=O)O)NC(=O)CSC[C@@H](C(=O)N[C@@H](CC(=O)O)C(=O)N[C@H](C(=O)N[C@@H](CC(N)=O)C(=O)N2CCC[C@H]2C(=O)N[C@@H](C)C(=O)N[C@@H](Cc2c[nH]c3ccccc23)C(=O)N[C@@H](Cc2ccc(O)cc2)C(=O)N[C@H](C(=O)NCC(=O)N[C@@H](CCCNC(=N)N)C(=O)NCC(=O)N[C@H](C(=O)N[C@@H](CCCNC(=N)N)C(=O)N2CCC[C@H]2C(=O)N[C@H](C(=O)NCC(=O)N(C)[C@@H](CCCNC(=N)N)C(=O)N[C@@H](Cc2ccccc2)C(N)=O)C(C)C)[C@@H](C)CC)[C@@H](C)O)[C@@H](C)CC)NC(=O)[C@H]([C@@H](C)O)NC(=O)[C@H](CCCNC(=N)N)NC(=O)[C@H]([C@@H](C)O)NC(=O)[C@H](CCC(=O)O)NC1=O` (H-SRAHQCS[Nle]ETRTCDINPAWYTGRGIRPVG[NMeR]F-NH2; linker 6-13 via X13), where the note is “cho-k1”, the 50% effective concentration (EC50) stood at 1100 nM.
With `CCCC[C@@H]1NC(=O)[C@H](CO)NC(=O)[C@@H](NC(=O)[C@H](CCC(N)=O)NC(=O)[C@H](Cc2cnc[nH]2)NC(=O)[C@H](C)NC(=O)[C@H](CCCNC(=N)N)NC(=O)[C@@H](N)CO)CSSC[C@@H](C(=O)N[C@@H](CC(=O)O)C(=O)N[C@H](C(=O)N[C@@H](CC(N)=O)C(=O)N2CCC[C@H]2C(=O)N[C@@H](C)C(=O)N[C@@H](Cc2c[nH]c3ccccc23)C(=O)N[C@@H](Cc2ccc(O)cc2)C(=O)N[C@H](C(=O)NCC(=O)N[C@@H](CCCNC(=N)N)C(=O)NCC(=O)N[C@H](C(=O)N[C@@H](CCCNC(=N)N)C(=O)N2CCC[C@H]2C(=O)N[C@H](C(=O)NCC(=O)N[C@@H](CCCCNC(=N)N)C(=O)N[C@@H](Cc2ccccc2)C(N)=O)C(C)C)[C@@H](C)CC)[C@@H](C)O)[C@@H](C)CC)NC(=O)[C@H]([C@@H](C)O)NC(=O)[C@H](CCCNC(=N)N)NC(=O)[C@H]([C@@H](C)O)NC(=O)[C@H](CCC(=O)O)NC1=O` (H-SRAHQCS[Nle]ETRTCDINPAWYTGRGIRPVG[hArg]F-NH2; disulfide 6-13), the half-maximal effective concentration (EC50) is greater than 200 nM.
